Assay results as given in patent publication US20060276549A1, “Combination and use of drugs” (priority 2005, published 2006).
Where two headings read alike, the source gives them in different places.

Columns and labels:
[1] = cited from earlier work
[2] = system: Diet-induced Obese (DIO) Mice; experiment: Body weight loss in diet-induced obese (DIO) mice; format: in vivo, C57BL/6J mice; conditions: for body weight loss at day 14: p.o. q.d., sibutramine 15 mg/kg, rimonabant 3 mg/kg base
Method: C57BL/6J mice (age 5-6 weeks) were obtained from Jackson Labs (Bar Harbor, Me.) and housed in groups of 5 under conditions of 12 hours lights on, 12 hours lights off (on at 04:00 h), with food and water available ad libitum. At the beginning of the study, mice were administered a purified low fat diet (D12450Bi, 10 kcal % fat, 3.8 kcal/g) or a high fat content diet (D12492i, 60 kcal % fat, 5.2 kcal/g), both obtained from Research Diets Inc. (New Brunswick, N.J.) for approximately 16 weeks. The fat content of these diets was a mixture of lard and soybean oil.
(§1) Mice were individually housed for study two weeks prior to start of treatment. Mice were weighed one week later (experiment day -7), and conditioned to oral gavage and daily vehicle administration by daily oral treatment at 15:00 h with Tween-80 (Sigma Chemical, St. Louis, Mo.) 1% vehicle in water (V/V). All doses were given in 4 ml/kg body weight volume of vehicle. All compound doses are expressed as base equivalent weights per unit body weight. Mice were reweighed on day -1 to ensure that weight loss plateaued and was not progressive. Mice were stratified into groups of equal mean body weight, with n=20 mice per group. On days 0 to 28, mice were dosed by oral gavage at 15:00 h (q.d.). Sibutramine hydrochloride monohydrate and rimonabant hydrochloride were administered p.o. by gavage for 27 to 28 days at 15:00 h, at doses of 15 mg/kg and 3 mg/kg base, respectively, once a day (q.d.). Compounds were formulated in Tween-80 vehicle. For combination treatment, the individual compound formulations were mixed together immediately prior to dosing, and given as a single gavage. Food and body weights were determined on days 0 prior to treatment, and on days 1, 4, 7, 11, 14, 18, 21, 25, 27 and 28. Ten mice per group were fasted overnight on day 27. […] Plasma was analysed for insulin, leptin, free fatty acids, triglycerides, total cholesterol, HDLc and LDLc. […]

[3] = system: Diet-induced Obese (DIO) Mice; experiment: Prevention of body weight re-gain in DIO mice; format: in vivo, C57BL/6J mice; conditions: DIO mice re-introduced to high fat food; qd dosing, day 0-7; vs HF, LF, to HF control
Method: C57BL/6J mice (age 5-6 weeks) were obtained from Jackson Labs (Bar Harbor, Me.) and housed in groups of 5 under conditions of 12 hours lights on, 12 hours lights off (on at 04:00 h), with food and water available ad libitum. At the beginning of the study, mice were administered a purified low fat diet (D12450Bi, 10 kcal % fat, 3.8 kcal/g) or a high fat content diet (D12492i, 60 kcal % fat, 5.2 kcal/g), both obtained from Research Diets Inc. (New Brunswick, N.J.) for approximately 16 weeks. The fat content of these diets was a mixture of lard and soybean oil. Groups of mice that had been on the high fat diet were switched back to the low fat diet for approximately 4 weeks prior to their being re-introduced to either the high fat food (weight re-gain) or maintained on low fat food. Approximately 5 days prior to the onset of dosing study (Day -5), mice were acclimated to handling and conditioned to oral gavage and daily vehicle administration by daily oral treatment at 15:00 h with Tween-80 (Sigma Chemical, St. Louis, Mo.) 1% vehicle in water (VN). All doses were given in 4 ml/kg body weight volume of vehicle. At the start of drug treatment, mice were dosed qd at 15:00 hr each day for 7 days, and body weights and food intake were evaluated.

[4] = system: Zucker fa/fa rats; experiment: Rat model of snacking behavior with isobologram analysis; format: in vivo; conditions: for ED50: Rattus norvegicus, read-out: ED50 for reduction of snack intake (50% reduction in Snack Consumption); for effect on snack intake / snacking: oral dosing before snack
Method: Non-fasted male Zucker fa/fa −/− rats (450 gr) were habituated for 3 weeks to a twice weekly, 3 hour exposure to 60% fat diet (RDI #12492) achieving an average snack intake of 12 to 16 g. Compounds or vehicle (1% Tween 80/water) were dosed orally, 1 ml/kg, n=12-15/group, 1 hour before exclusive presentation of the snack. Snack intake and subsequent 21-hour intake of standard chow (Purina 5008) were measured. […] It is unclear from these individual studies, however, if combination treatment would result in an even greater effect on snacking behavior as reflected in a shift of the ED50 to lower doses. Therefore, an isobologram analysis was performed as described in Example 6
Dose response curves for sibutramine hydrochloride monohydrate and rimonabant hydrochloride were generated in the rat snacking model and ED50 and 95% confidence limits derived from the linear part of the curve by linear regression. Two combination studies in snacking (n=12 rats/group) were performed; the first with a fixed dose of sibutramine HCl (5 mg base/kg) co-administered with rimonabant at 1, 2.5, and 5 mg base/kg, and the second with rimonabant fixed at 4 mg base/kg with sibutramine at 2, 4, and 8 mg base/kg, plus vehicle control. ED50 values were derived from the combination studies and plotted on the isobologram. The ED50 is the dose where there is a 50% reduction in Snack Consumption. […] The rimonabant hydrochloride ED50 is 8 mg/kg.

[5] = system: DIO mice; experiment: DEXA analysis of body composition in DIO mice; format: in vivo; conditions: Day 28
Method: as §1

SMILES | food intake ([1]; literature studies, initially) | reduction of body weight ([1]; over a 6 month or a 1 year period) | body weight loss at day 14 [2] | body weight re-gain [3] | ED50 ([4]; po) | effect on snack intake / snacking [4] | lean mass (DEXA) vs. DIO controls [5] | further weight loss compared with sibutramine treated animals ([2]; Day 14-28) | ED50 ([4]; Zucker fa/fa rats, oral, 1 hour before 3 hour 60% fat snack)
CC(C)CC(N(C)C)C1(c2ccc(Cl)cc2)CCC1 (stereo not drawn) [sibutramine, N,N-dimethyl-1-[1-(4-chlorophenyl)cyclobutyl]-3-methylbutylamine] | potently inhibits food intake | about 10% | 14% | prevent body weight re-gain | 24 mg/kg | effective in reducing snack intake | statistical decreases in lean mass |  | 
Cc1c(C(=O)NN2CCCCC2)nn(-c2ccc(Cl)cc2Cl)c1-c1ccc(Cl)cc1 [rimonabant, 1-H-pyrazole-3-carboxamide, 5-(4-chlorophenyl)-1-(2,4-dichlorophenyl)-4-methyl-N-1-piperidinyl] |  |  | 15% | prevent body weight re-gain |  | effective in reducing snack intake |  | approximately 4% | 8 mg/kg
